{"source": "patent US20260207765A1", "about": "“COVALENTLY-MODIFIED STEROID ACID-PEPTIDES HAVING ENHANCED STABILITY AND/OR BIOLOGICAL ACTIVITY” (priority 2022, published 2026)", "key": {"[1]": {"tested_on": "JIMT-1 breast cancer cells", "test": "Cytotoxicity of steroid acid-peptide conjugates in JIMT-1 cells", "assay_type": "cell-based", "conditions": "JIMT-1, FIGS. 21A and 21B", "experimental": "(§1) Apoptosis analysis was conducted by flow-cytometry. Briefly, target cells were first treated then washed. Treated cells were then re-suspended in Annexin-V staining buffer prior to staining with Annexin-V and propidium iodine (PI). Fifteen minutes later, cells were washed prior to analysis using BD FACS™ Diva on CANTOII™.\n50 mg of CDCA-C-SV40 monomers (or other steroid acid-peptide monomers) were resuspended in 200-500 μL of DMSO. 10 eq of N,N-Diisopropylethylamine (DIPEA) was added to the mixture and incubated in a thermomixer at 37° C. with agitation (1000 rpm) overnight, enabling dimerization of the monomers via their N-terminal cysteine thiol groups to produce (CDCA-C-SV40)2 or other dimers. The samples were then analyzed by UPLC-MS to evaluate dimer formation efficiency. Cell toxicity was evaluated via a Cell Toxicity assay (PrestoBlue™)."}, "EL4 lymphoma": {"tested_on": "EL4 lymphoma", "test": "EL4 tumor model in mice", "assay_type": "in vivo, mouse", "conditions": "highest tested dose (190 μM), every 48 h, total of 5 injections", "experimental": "Female C57BL/6 mice (n=10/group) received a SC injection of 5×10^5 EL4 cells at Day 0. […] For all depletion studies, antibodies were injected via the intraperitoneal route at days 0, 3 and 6 at a concentration of 200 μg/injection. Tumor size and animal survival for all of the above listed in vivo studies was followed thereafter using a digital caliber until reaching endpoints (ulceration or a tumor volume ≥1000 mm^3)."}, "EL4 lymphoma cells": {"tested_on": "EL4 lymphoma cells", "test": "Apoptosis analysis / kill curve by flow cytometry (Annexin-V, PI)", "assay_type": "cell-based, mouse", "experimental": "as §1"}, "[2]": {"tested_on": "mesenchymal stromal cells (MSCs)", "test": "Apoptosis analysis by flow cytometry on MSCs", "assay_type": "cell-based", "conditions": "190 μM", "experimental": "as §1"}, "macrophages": {"tested_on": "macrophages", "test": "Apoptosis analysis by flow cytometry on macrophages", "assay_type": "cell-based", "conditions": "190 μM", "experimental": "as §1"}, "[3]": {"tested_on": "bone marrow-derived dendritic cells (DCs)", "test": "Apoptosis analysis by flow cytometry on bone marrow-derived dendritic cells", "assay_type": "cell-based, mouse", "conditions": "190 μM", "experimental": "Mouse bone marrow derived DCs (BMDCs) were generated by flushing the whole marrow from mouse femurs using RPMI™ 1640 supplemented with 10% fetal bovine serum (FBS), 50 U/mL Penicillin-Streptomycin, 2 mM L-glutamine, 10 mM HEPES, 1% MEM Non-essential Amino Acids, 1 mM Sodium Pyruvate, 0.5 mM β-mercaptoethanol. Following red blood cell lysis, cells were then cultured in media supplemented with 50 ng/mL murine recombinant GM-CSF. The media was changed on days 2, 4, 6 and 8. On day 9, the media was replaced to include recombinant murine GM-CSF and LPS from Escherichia coli 0111 (1 ng/mL) to stimulate DC maturation. Mature DCs were assessed by flow cytometry for their surface expression of CD3, CD19, NK1.1, CD11c, CD80, CD86, and I-A^b.\nas §1"}, "[4]": {"tested_on": "EL4, B16, E0771, CT-26, 4T1, MBA-MD-468, H460 and A549 cancer cells", "test": "Annexin-V cytotoxicity screen of bile acid-SV40 conjugates on eight tumor cell lines", "assay_type": "cell-based", "conditions": "190 μM, all eight tumor cell lines", "experimental": "Annexin-V staining percentage after treatment with different bile acid-SV40 conjugates (190 μM) is shown relative to live cancer cells (i.e., PBS treated cancer cells) by flow cytometry. Cancer cell lines tested were EL4 lymphoma, B16 melanoma, E0771 breast cancer, CT-26 colon carcinoma, 4T1 breast cancer, MBA-MD-468 triple-negative breast cancer, human H460 lung cancer, and human A549 lung cancer. […] SV40 alone was also tested as a negative control.\nas §1"}, "[5]": {"tested_on": "wild-type MSC and B3Z reporter system", "test": "Antigen cross-presentation, wild-type MSC and B3Z reporter system", "conditions": "50 μM, sample stored 3 months at −80° C. (thawed)"}}, "note": "pEC50: −log10 of the molar value. Positions of bridges follow the written chain, without caps; N, C: chain ends. Residues, ends and D or L forms follow the SMILES beside them. Chains are numbered I, II in the order given. No end group written: not given here. *: point of attachment. Chenodeoxycholyl = C[C@H](CCC(=O)*)[C@H]1CC[C@H]2[C@@H]3[C@H](O)C[C@@H]4C[C@H](O)CC[C@]4(C)[C@H]3CC[C@]12C; Cholyl = C[C@H](CCC(=O)*)[C@H]1CC[C@H]2[C@@H]3[C@H](O)C[C@@H]4C[C@H](O)CC[C@]4(C)[C@H]3C[C@H](O)[C@]12C", "data": [{"compound": "CC(C)[C@H](NC(=O)[C@H](CCCCN)NC(=O)CNC(=O)[C@H](Cc1ccc(O)cc1)NC(=O)CNC(=O)[C@H](CO)NC(=O)[C@H](CSSC[C@H](NC(=O)CC[C@@H](C)[C@H]1CC[C@H]2[C@@H]3[C@H](O)C[C@@H]4C[C@H](O)CC[C@]4(C)[C@H]3CC[C@]12C)C(=O)N[C@@H](CO)C(=O)NCC(=O)N[C@@H](Cc1ccc(O)cc1)C(=O)NCC(=O)N[C@@H](CCCCN)C(=O)N[C@H](C(=O)N[C@@H](CO)C(=O)N[C@@H](CCCNC(=N)N)C(=O)N[C@@H](CCCNC(=N)N)C(=O)NCC(=O)NCC(=O)N[C@@H](Cc1c[nH]cn1)C(=O)N[C@@H](CCC(N)=O)C(=O)N[C@@H](CC(N)=O)C(=O)N[C@@H](CO)C(=O)N[C@@H](Cc1ccc(O)cc1)C(=O)N[C@@H](CCCCN)C(=O)N1CCC[C@H]1C(=O)N[C@@H](Cc1ccc(O)cc1)C(=O)O)C(C)C)NC(=O)CC[C@@H](C)[C@H]1CC[C@H]2[C@@H]3[C@H](O)C[C@@H]4C[C@H](O)CC[C@]4(C)[C@H]3CC[C@]12C)C(=O)N[C@@H](CO)C(=O)N[C@@H](CCCNC(=N)N)C(=O)N[C@@H](CCCNC(=N)N)C(=O)NCC(=O)NCC(=O)N[C@@H](Cc1c[nH]cn1)C(=O)N[C@@H](CCC(N)=O)C(=O)N[C@@H](CC(N)=O)C(=O)N[C@@H](CO)C(=O)N[C@@H](Cc1ccc(O)cc1)C(=O)N[C@@H](CCCCN)C(=O)N1CCC[C@H]1C(=O)N[C@@H](Cc1ccc(O)cc1)C(=O)O", "note": "[(CDCA-C-hnRNP D NLS)2] (I: Chenodeoxycholyl-CSGYGKVSRRGGHQNSYKPY-OH / II: Chenodeoxycholyl-CSGYGKVSRRGGHQNSYKPY-OH; disulfide I:1-II:1)", "values": [{"measurement": "cytotoxicity of dimerized version versus monomer", "setting": "[1]", "result": "enhancement of cytotoxicity"}]}, {"compound": "CSCC[C@H](NC(=O)[C@H](CS)NC(=O)CC[C@@H](C)[C@H]1CC[C@H]2[C@@H]3[C@H](O)C[C@@H]4C[C@H](O)CC[C@]4(C)[C@H]3C[C@H](O)[C@]12C)C(=O)NCC(=O)N[C@@H](CCCNC(=N)N)C(=O)N[C@H](C(=O)N[C@@H](CCCNC(=N)N)C(=O)N[C@H](C(=O)N[C@@H](CCCCN)C(=O)N[C@H](C(=O)N[C@H](C(=O)N[C@@H](CCCCN)C(=O)N[C@@H](CCCCN)C(=O)N[C@@H](C)C(=O)N[C@@H](C)C(=O)NCC(=O)NCC(=O)O)C(C)C)[C@@H](C)O)[C@@H](C)O)C(C)C", "note": "[CA-C-NLS1 RPS17] (Cholyl-CMGRVRTKTVKKAAGG-OH; N-terminus and C-terminus assumed)", "values": [{"measurement": "survival at day 40", "setting": "EL4 lymphoma", "result": 20, "unit": "%"}, {"measurement": "tumor growth", "setting": "EL4 lymphoma", "result": "significantly delayed tumor growth"}]}, {"compound": "CC[C@H](C)[C@H](NC(=O)[C@H](CCCNC(=N)N)NC(=O)[C@H](CCCCN)NC(=O)[C@H](CCSC)NC(=O)[C@H](CC(C)C)NC(=O)[C@H](Cc1c[nH]cn1)NC(=O)[C@@H](NC(=O)[C@@H](NC(=O)[C@H](Cc1ccc(O)cc1)NC(=O)CNC(=O)[C@H](C)NC(=O)[C@@H](NC(=O)[C@H](CCCCN)NC(=O)[C@H](CC(N)=O)NC(=O)[C@H](CCCNC(=N)N)NC(=O)[C@H](CC(C)C)NC(=O)[C@H](CCCCN)NC(=O)[C@H](CCCCN)NC(=O)[C@H](CO)NC(=O)[C@H](CS)NC(=O)CC[C@@H](C)[C@H]1CC[C@H]2[C@@H]3[C@H](O)C[C@@H]4C[C@H](O)CC[C@]4(C)[C@H]3C[C@H](O)[C@]12C)[C@@H](C)CC)C(C)C)[C@@H](C)O)C(=O)O", "note": "[CA-C-NLS3 RPS17] (Cholyl-CSKKLRNKIAGYVTHLMKRI-OH; N-terminus and C-terminus assumed)", "values": [{"measurement": "survival at day 40", "setting": "EL4 lymphoma", "result": 20, "unit": "%"}, {"measurement": "tumor growth", "setting": "EL4 lymphoma", "result": "significantly delayed tumor growth"}]}, {"compound": "CC(C)[C@H](NC(=O)[C@H](CCCCN)NC(=O)[C@H](CCCNC(=N)N)NC(=O)[C@H](CCCCN)NC(=O)[C@H](CCCCN)NC(=O)[C@H](CCCCN)NC(=O)[C@@H]1CCCN1C(=O)CNC(=O)[C@H](Cc1ccc(O)cc1)NC(=O)CNC(=O)[C@H](CS)NC(=O)CC[C@@H](C)[C@H]1CC[C@H]2[C@@H]3[C@H](O)C[C@@H]4C[C@H](O)CC[C@]4(C)[C@H]3C[C@H](O)[C@]12C)C(=O)NCC(=O)NCC(=O)O", "note": "[CA-C-SV40] (Cholyl-CGYGPKKKRKVGG-OH)", "values": [{"measurement": "cytotoxicity of Cholic acid-NLS conjugates", "setting": "EL4 lymphoma cells; 190 μM, EL4, FIG. 6", "result": "notably higher"}, {"measurement": "pEC50", "setting": "EL4 lymphoma cells; EL4 lymphoma cells, flow cytometry, read-out: EC50 (cell death / kill curve)", "result": 4.02}, {"measurement": "survival at day 40", "setting": "EL4 lymphoma", "result": 60, "unit": "%"}, {"measurement": "apoptosis in normal or healthy cells", "setting": "[2]", "result": "induce apoptosis"}, {"measurement": "apoptosis in normal or healthy cells", "setting": "macrophages", "result": "induce apoptosis"}, {"measurement": "apoptosis in normal or healthy cells", "setting": "[3]", "result": "induce apoptosis"}]}, {"compound": "CC(C)[C@H](NC(=O)[C@H](CCCCN)NC(=O)[C@H](CCCNC(=N)N)NC(=O)[C@H](CCCCN)NC(=O)[C@H](CCCCN)NC(=O)[C@H](CCCCN)NC(=O)[C@@H]1CCCN1C(=O)CNC(=O)[C@H](Cc1ccc(O)cc1)NC(=O)CNC(=O)[C@H](CS)NC(=O)CC[C@@H](C)[C@H]1CC[C@H]2[C@@H]3[C@H](O)C[C@@H]4C[C@H](O)CC[C@]4(C)[C@H]3CC[C@]12C)C(=O)NCC(=O)NCC(=O)O", "note": "[CDCA-C-SV40] (Chenodeoxycholyl-CGYGPKKKRKVGG-OH)", "values": [{"measurement": "cytotoxic activity", "setting": "[4]", "result": 100, "unit": "%"}]}, {"compound": "CC(=O)N[C@@H](CS)C(=O)O", "note": "[NAC, N-acetylcysteine, reference compound]", "values": [{"measurement": "rescue from CA-C-SV40-triggered cell death", "setting": "EL4 lymphoma cells; CA-C-SV40 at EC50 dose", "result": "completely blocked apoptosis"}]}, {"compound": "CA-C-hnRNPA1: cholic acid conjugated to C-hnRNPA1 M9 NLS peptide (SEQ ID NO: 4) (Cholyl-CSNFGPMKGGNFGGRSSGPY)", "values": [{"measurement": "antigen presentation", "setting": "[5]", "result": "reduced antigen presentation activity"}]}, {"compound": "SV40 NLS: nuclear localization signal from SV40 large T-antigen (PKKKRKV; SEQ ID NO: 2), tested alone as negative control [reference compound]", "values": [{"measurement": "cytotoxic activity", "setting": "EL4 lymphoma cells", "result": "did not exhibit any cytotoxic activity"}]}]}
